Measurements reported in PubChem BioAssay (NCI).
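A five-concentration, 48-hour dose response in 96-well plates underlies each endpoint, interpolated linearly between surrounding concentrations. TGI denotes the concentration required for complete inhibition of growth.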

How the values were obtained:
Experiment in all cases: DTP human tumour cell line panel, 48 h
MDA-MB-231 breast = test system: MDA-MB-231 breast
HS 578T breast = test system: HS 578T breast
HCC-2998 colon = test system: HCC-2998 colon
NCI-H226 lung = test system: NCI-H226 lung
SR leukemia = test system: SR leukemia

Structure (SMILES)	TGI (MDA-MB-231 breast)	TGI (HS 578T breast)	TGI (HCC-2998 colon)	TGI (NCI-H226 lung)	TGI (SR leukemia)
C=C([C@@]1(O)C[C@H]2[C@H](CCC2(OC)OC)[C@@H]2c3ccccc3O[C@@H]21)[Si](C)(C)C	> 100 µM	> 100 µM	> 100 µM	> 100 µM	> 100 µM
C[N+]12CCCCC1C(CN1C(=O)Cc3c4ccccc4c(c4ccccc34)CC1=O)CCC2 (configuration not stated)	> 100 µM	> 100 µM	> 100 µM	> 100 µM	> 100 µM
CSc1cnc2ccccc2c1SC1CN(Cc2ccccc2)c2ccccc2C1=O (configuration not stated)	> 100 µM		> 100 µM	> 100 µM	> 100 µM
Nc1ccc(S2(c3ccc(N)cc3)C=C(c3ccccc3)C(c3ccccc3)=C2)cc1	> 100 µM	> 100 µM	> 100 µM	> 63.3 µM	> 100 µM
COC1C=COC2(C)Oc3c(C)c(O)c4c(O)c(c(C5SCCS5)c(O)c4c3C2=O)NC(=O)C(C)=C/C=C\C(C)C2OC(C)(C)OC(C2C)C(C)C(OC(C)=O)C1C (configuration not stated)	45.7 µM	63.3 µM	20.2 µM	22.1 µM	
N#Cc1c(Cl)cc(Cl)n2c1nc1ccccc12	14.2 µM	32.8 µM	8.44 µM	33.8 µM	> 29.6 µM
S=C(Nc1ccc2c(c1)oc1ccccc12)c1cccnc1	> 100 µM		> 100 µM	96.1 µM	> 100 µM
O=C1c2ccccc2C2(c3ccc(Cl)cc3)N[C@H]3CCCC[C@@H]3N12 (some centres not stated)	> 100 µM	> 100 µM		> 100 µM	> 100 µM
N#CC1=C(N)N(c2ccccc2)C(c2ccccc2)C1(C#N)C#N (configuration not stated)	29.8 µM	> 100 µM	30.2 µM	36.2 µM	40.5 µM
CC(=O)OCC1OC(n2c3c(cc(C#N)c2=S)CCCCC3)C(OC(C)=O)C(OC(C)=O)C1OC(C)=O (configuration not stated)	> 100 µM	> 100 µM	> 100 µM	> 100 µM	> 100 µM
CN1C2CCC1CC(C)(O)C2 (configuration not stated)	> 100 µM		> 100 µM	> 100 µM	> 100 µM
CC12CCC(O)CC1CCC1C2CCC2(C)C(C(=O)CC(O)C(F)(F)F)CCC12 (configuration not stated)	98.2 µM	> 80 µM	80 µM	> 100 µM	11.2 µM
COc1ccc(NS(=O)(=O)c2ccc(NC(NC(=O)CC(C)C)(C(F)(F)F)C(F)(F)F)cc2)nn1	> 100 µM	> 100 µM	> 100 µM	> 100 µM	> 100 µM
CC(C)NC(=O)OCCN=c1c2ccccc2ccc2ccccc12	> 100 µM	> 100 µM	> 100 µM	> 100 µM	80.6 µM
COc1ccc(C2OC(c3ccncc3)=NN2C)cc1OC (configuration not stated)	> 100 µM	> 100 µM	> 100 µM	> 100 µM	
Oc1cccc(-c2nc3cc(F)ccc3s2)c1	51.6 µM		23.2 µM	44 µM	47.8 µM
CCC1(C)C=Cc2c(cc(O)c3c(=O)c4ccccc4n(C)c23)O1 (configuration not stated)	> 10 µM	> 10 µM	> 10 µM	> 10 µM	
COc1cc(OC)c(C2c3cc4c(cc3OC(N3CCCC3)C2C)OCO4)c(OC)c1 (configuration not stated)		18.1 µM	21.9 µM		29.6 µM

Structure (SMILES)	TGI (MDA-MB-231 breast)	TGI (HS 578T breast)	TGI (HCC-2998 colon)	TGI (NCI-H226 lung)	TGI (SR leukemia)
Cc1nc2sc3ccccc3n2c(=O)c1N=Nc1ccc(Cl)cc1	> 100 µM	> 100 µM		> 100 µM	> 100 µM
CC(C)(Cl)C(Br)CCC(=CCCl)CBr (mixture of isomers)	3.5 µM	16.4 µM	4.22 µM	45 µM	3.92 µM
Cc1cc(S(=O)(=O)Nc2nc3cc(-c4ccc(Cl)cc4)sc3c(=O)n2N)c(S)cc1Cl	> 100 µM	> 100 µM	> 100 µM		
CC(C)=CCNc1ncnc2c1ncn2CCC#N	> 100 µM	> 100 µM	> 100 µM	> 100 µM	> 100 µM
CCCCN=C(c1ccccc1)N1CCOCC1	> 100 µM	> 100 µM		> 100 µM	> 100 µM
CC(=O)O[C@H]1CC[C@@]2(C)C(=CC[C@H]3[C@@H]4C[C@H](N5CCOCC5)[C@H](OC(C)=O)[C@@]4(C)CC[C@@H]32)C1	> 100 µM	> 100 µM	> 100 µM	> 100 µM	> 100 µM
O=C1C(=Cc2ccccc2O)N=C(c2ccccc2)N1n1c(-c2ccccc2)nc2ccccc2c1=O	> 100 µM	> 100 µM	89.2 µM	79 µM	> 100 µM
CCOC(=O)NC(Nc1ccc([N+](=O)[O-])cc1)(C(F)(F)F)C(F)(F)F	> 100 µM	> 100 µM	> 100 µM	> 100 µM	> 100 µM
CN(C)c1ccc(C2SCC(=O)N2c2ccc(Oc3ccc(Cl)cc3)c(Cl)c2)cc1 (configuration not stated)	43.3 µM	40.4 µM	52.4 µM	> 100 µM	57.3 µM
COC(=O)C1CCCN1C(=O)C(Cc1cn(S(=O)(=O)c2ccc(C)cc2)cn1)NC(=O)OC(C)(C)C (configuration not stated)	> 100 µM	> 100 µM	> 100 µM	> 100 µM	> 100 µM
COc1ccc2c(cnc3c4cc(OC)c(OC)cc4ccc23)c1	> 100 µM	> 100 µM	> 100 µM	> 100 µM	> 100 µM
C=C1CN2CC(=C)CN(C1)CS(=O)(=O)N1CC(=C)CN(CC(=C)C1)S(=O)(=O)N1CC(=C)CN(CC(=C)C1)S(=O)(=O)C2	92.1 µM	86.1 µM	37.5 µM	71.5 µM	> 100 µM
[N-]=[N+]=NC1=C(c2ccccn2)C(=O)c2cccc3cccc1c23	> 100 µM	> 100 µM	> 100 µM		> 100 µM
COc1cccc(/C=N/n2c(C)n[nH]c2=O)c1	> 100 µM	43.8 µM	> 100 µM	> 100 µM	
Cc1ccc2c(c1)C(=O)C1(C2)Cc2cccc(C)c2C1=O (configuration not stated)	> 100 µM	> 100 µM	> 100 µM	> 100 µM	> 100 µM
CSc1ncnc2c1ncn2CCC#N	> 100 µM	> 100 µM		> 100 µM	> 100 µM
CC(C)(C)C(=O)CC1=Nc2ccccc2SC1(O)CC(=O)C(C)(C)C (configuration not stated)	36.2 µM	71.7 µM	40.5 µM	40.3 µM	33 µM
CCC/C(Cl)=N\OC(=O)Nc1ccc(OC(F)(F)F)cc1	25.8 µM	> 70.7 µM	38.6 µM	34.5 µM	
